According to ChEMBL document CHEMBL5036304, “One Atom Makes All the Difference: Getting a Foot in the Door between SOS1 and KRAS” (J Med Chem, 2021):
Active and inactive are the calls of the source. No cut-off for these calls is given here.

Experiments:
DLD-1 [1] = test: Induction of apoptosis in human DLD-1 cells harboring KRAS G13D mutant assessed as cleaved-PRAP at 0.1 nM measured after 24 to 48 hrs; type: functional, cell-based; conditions: time 24-48 hrs
[2] = molecular target: T1, Son of sevenless homolog 1 (Homo sapiens, UniProt Q07889); test: Binding affinity to SOS1 (unknown origin) assessed as dissociation constant by SPR analysis
T1 sequence (Q07889 whole entry): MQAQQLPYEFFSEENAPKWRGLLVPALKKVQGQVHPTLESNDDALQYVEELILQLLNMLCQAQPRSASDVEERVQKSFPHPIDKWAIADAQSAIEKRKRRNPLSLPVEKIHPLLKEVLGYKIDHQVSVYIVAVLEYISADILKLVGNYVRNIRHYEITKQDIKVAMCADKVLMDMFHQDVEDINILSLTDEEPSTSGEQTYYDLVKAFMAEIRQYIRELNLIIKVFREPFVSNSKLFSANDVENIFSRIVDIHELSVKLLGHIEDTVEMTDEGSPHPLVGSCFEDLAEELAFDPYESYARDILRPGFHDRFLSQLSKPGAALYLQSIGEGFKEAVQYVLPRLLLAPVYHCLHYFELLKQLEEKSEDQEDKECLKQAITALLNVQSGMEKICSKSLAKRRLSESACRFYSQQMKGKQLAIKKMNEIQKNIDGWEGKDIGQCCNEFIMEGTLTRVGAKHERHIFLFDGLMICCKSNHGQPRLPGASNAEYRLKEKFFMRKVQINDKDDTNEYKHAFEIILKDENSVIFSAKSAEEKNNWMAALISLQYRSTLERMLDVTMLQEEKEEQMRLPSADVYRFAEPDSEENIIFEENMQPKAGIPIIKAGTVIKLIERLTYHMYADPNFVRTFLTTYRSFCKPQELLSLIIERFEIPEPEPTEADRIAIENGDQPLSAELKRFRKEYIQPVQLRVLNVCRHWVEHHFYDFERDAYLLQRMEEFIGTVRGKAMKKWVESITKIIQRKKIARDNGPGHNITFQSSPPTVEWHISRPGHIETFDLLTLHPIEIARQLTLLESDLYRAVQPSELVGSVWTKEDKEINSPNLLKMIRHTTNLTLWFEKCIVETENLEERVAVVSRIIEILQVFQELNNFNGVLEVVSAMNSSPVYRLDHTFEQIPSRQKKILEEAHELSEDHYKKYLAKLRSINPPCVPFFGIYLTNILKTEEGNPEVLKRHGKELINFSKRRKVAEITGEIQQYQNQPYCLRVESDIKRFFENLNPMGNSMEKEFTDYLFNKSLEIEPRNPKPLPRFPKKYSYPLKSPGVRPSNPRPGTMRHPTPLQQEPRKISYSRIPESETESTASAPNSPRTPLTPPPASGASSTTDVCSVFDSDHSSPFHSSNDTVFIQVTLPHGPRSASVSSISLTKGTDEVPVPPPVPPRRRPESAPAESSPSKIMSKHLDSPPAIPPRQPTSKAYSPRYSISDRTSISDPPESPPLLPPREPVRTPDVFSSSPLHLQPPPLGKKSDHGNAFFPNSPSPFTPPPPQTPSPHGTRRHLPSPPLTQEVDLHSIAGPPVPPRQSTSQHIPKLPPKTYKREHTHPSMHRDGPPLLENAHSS

SOS1-KRAS [3] = molecular target: T2, SOS1-KRAS (Homo sapiens, UniProt Q07889); test: Inhibition of SOS1/KRAS G12D mutant (unknown origin) protein-protein interaction using GDP nucleotide as substrate measured after 30 mins by Alphascreen assay
SOS1-KRAS [4] = molecular target: T2, SOS1-KRAS; test: Activation of SOS1/KRAS G12D mutant (unknown origin) protein-protein interaction using GDP nucleotide as substrate measured after 30 mins by Alphascreen assay
[5] = molecular target: Epidermal growth factor receptor (Homo sapiens, UniProt P00533); test: Inhibition of EGFR (unknown origin)
Epidermal growth factor receptor, sequence (P00533 whole entry): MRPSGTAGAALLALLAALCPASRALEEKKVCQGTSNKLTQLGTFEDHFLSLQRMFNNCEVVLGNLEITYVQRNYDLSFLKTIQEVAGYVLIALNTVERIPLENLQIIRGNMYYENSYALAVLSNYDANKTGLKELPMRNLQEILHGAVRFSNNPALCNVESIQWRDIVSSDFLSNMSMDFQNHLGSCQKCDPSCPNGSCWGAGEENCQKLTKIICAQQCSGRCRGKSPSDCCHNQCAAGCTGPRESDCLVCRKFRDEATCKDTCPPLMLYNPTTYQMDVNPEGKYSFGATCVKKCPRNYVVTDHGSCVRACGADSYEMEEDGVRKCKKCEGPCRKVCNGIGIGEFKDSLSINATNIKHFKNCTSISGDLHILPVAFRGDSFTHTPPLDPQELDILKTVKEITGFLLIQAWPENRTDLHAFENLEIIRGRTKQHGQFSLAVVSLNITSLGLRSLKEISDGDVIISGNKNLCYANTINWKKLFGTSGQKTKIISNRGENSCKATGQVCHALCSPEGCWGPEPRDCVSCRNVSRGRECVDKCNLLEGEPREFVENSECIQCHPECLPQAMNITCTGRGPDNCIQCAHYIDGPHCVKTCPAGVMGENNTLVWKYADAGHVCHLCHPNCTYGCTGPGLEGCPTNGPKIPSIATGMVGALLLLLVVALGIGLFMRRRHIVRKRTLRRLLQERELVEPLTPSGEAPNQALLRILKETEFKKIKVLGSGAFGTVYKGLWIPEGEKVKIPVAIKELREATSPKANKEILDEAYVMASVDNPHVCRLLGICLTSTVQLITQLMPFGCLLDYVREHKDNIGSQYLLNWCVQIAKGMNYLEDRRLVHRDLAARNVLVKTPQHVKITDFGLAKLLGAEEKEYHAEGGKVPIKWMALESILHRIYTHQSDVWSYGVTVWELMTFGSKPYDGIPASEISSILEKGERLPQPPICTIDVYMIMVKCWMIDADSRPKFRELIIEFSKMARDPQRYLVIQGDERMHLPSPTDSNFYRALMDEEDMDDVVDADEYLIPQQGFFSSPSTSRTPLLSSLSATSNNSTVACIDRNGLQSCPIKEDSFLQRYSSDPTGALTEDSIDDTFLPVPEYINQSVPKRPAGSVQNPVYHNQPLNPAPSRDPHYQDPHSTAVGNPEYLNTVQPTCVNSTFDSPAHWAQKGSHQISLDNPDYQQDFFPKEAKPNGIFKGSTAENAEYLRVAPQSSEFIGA

[6] = Efflux ratio of apparent permeability from basolateral to apical side over apical to basolateral side in human Caco-2 cells at 10 uM
DLD-1 [7] = test: Induction of apoptosis in human DLD-1 cells harboring KRAS G13D mutant assessed as cleaved-PRAP at 100 nM measured after 24 to 48 hrs; type: functional, cell-based; conditions: time 24-48 hrs
[8] = Anticancer activity against human DLD-1 cells xenografted rat model assessed as tumor growth inhibition at 50 mg/kg measured; type: functional; conditions: read-out: TGI
[9] = Oral bioavailability in rat; type: ADME, organism-based; conditions: in vivo
[10] = Oral bioavailability in mouse; type: ADME, organism-based; conditions: in vivo
[11] = Metabolic stability in mouse hepatocytes in presence of 50% serum; type: ADME, cell-based, Hepatocyte
DLD-1 [12] = test: Induction of apoptosis in human DLD-1 cells harboring KRAS G13D mutant assessed as cleaved-PRAP measured after 24 to 48 hrs; type: functional, cell-based; conditions: time 24-48 hrs
[13] = Metabolic stability in rat hepatocytes in presence of 50% serum; type: ADME, cell-based, Hepatocyte
[14] = Metabolic stability in human hepatocytes in presence of 50% serum; type: ADME, cell-based, Hepatocyte

SMILES | Kd [2] | IC50 (SOS1-KRAS [3]) | efflux ratio at 10 µM [6] | other results
CC(=O)Nc1cccc(-n2c(=O)n(C3CC3)c(=O)c3c(Nc4ccc(I)cc4F)n(C)c(=O)c(C)c32)c1 |  |  |  | Activity (DLD-1 [1]): Active
COc1ccc2nc(C)nc(N[C@H](C)c3cc(N)cc(C(F)(F)F)c3)c2c1 | 0.024 µM | 0.033 µM |  | 
N[C@@H](Cc1c[nH]c2ccccc12)C(=O)NC1CCN(Cc2c[nH]c3ccccc23)CC1 | 19.3 µM |  |  | EC50 (SOS1-KRAS [4]): 11.1 µM
COc1cc2nc(C)nc(N[C@H](C)c3cccc(S(N)(=O)=O)c3)c2cc1OC | 0.016 µM | 0.056 µM | 50 | IC50 [5]: > 20 µM
CN(C)C/C=C/C(=O)Nc1cc2c(Nc3ccc(F)c(Cl)c3)ncnc2cc1O[C@H]1CCOC1 [AFATINIB] |  |  |  | Activity (DLD-1 [7]): Active; inhibition in vivo at 50 mg/kg [8]: 7%
COc1cc2nc(C)nc(N[C@H](C)c3cccc(N)c3)c2cc1OC | 0.123 µM | 0.355 µM | 1.3 | 
COc1cc2ncnc(N[C@H](C)c3ccccc3)c2cc1OC | 0.301 µM | 1.05 µM |  | IC50 [5]: 0.001 µM
COc1cc2nc(C)nc(N[C@H](C)c3ccccc3)c2cc1OC | 0.469 µM | 0.453 µM | 0.6 | IC50 [5]: 2.8 µM
COc1cc2nc(C)nc(N[C@H](C)c3cc(N)cc(C(F)(F)F)c3)c2cc1OC | 0.016 µM | 0.015 µM | 0.7 | 
CC(C)c1noc2ncc(C(=O)NC(C)c3cccc(S(N)(=O)=O)c3)cc12 (stereo unspecified) | 0.937 µM | 1.19 µM |  | 
Cc1nc(N[C@H](C)c2cc(N)cc(C(F)(F)F)c2)c2cc(F)ccc2n1 | 0.751 µM |  |  | EC50 (SOS1-KRAS [4]): 0.939 µM
COc1cc2nc(C)nc(N[C@H](C)c3cccc(C(F)(F)F)c3)c2cc1OC | 0.104 µM | 0.106 µM | 0.3 | IC50 [5]: > 20 µM
COc1cc2nc(C)nc(N[C@H](C)c3cc(N)cc(C(F)(F)F)c3)c2cc1O[C@H]1CCOC1 |  |  |  | bioavailability [9]: 100%; bioavailability [10]: 100%; Stability [11]: 45%; Activity (DLD-1 [12]): Active; Stability [13]: 28%; inhibition in vivo at 50 mg/kg [8]: 37%; Stability [14]: 14%
Cc1nc(N[C@H](C)c2cc(N)cc(C(F)(F)F)c2)c2cc(Cl)ccc2n1 | 1.49 µM | 3.83 µM |  | 
